# Target: human NAMPT (Homo sapiens (Human), UniProt P43490)
# Assay: NMN fluorescence biochemical assay (human recombinant NAMPT enzyme assay)
# Outline: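 Activation of recombinant human NAMPT (6 nM) was tested with 2.5 mM ATP, 20 μM PRPP and 150 μM nicotinamide in 50 mM HEPES pH 7.2 for 60 min at ambient temperature. NMN was derivatized with acetophenone/KOH/formic acid and read by fluorescence (355/460 nm) after 40 min.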
# Chain of human NAMPT (P43490 whole entry): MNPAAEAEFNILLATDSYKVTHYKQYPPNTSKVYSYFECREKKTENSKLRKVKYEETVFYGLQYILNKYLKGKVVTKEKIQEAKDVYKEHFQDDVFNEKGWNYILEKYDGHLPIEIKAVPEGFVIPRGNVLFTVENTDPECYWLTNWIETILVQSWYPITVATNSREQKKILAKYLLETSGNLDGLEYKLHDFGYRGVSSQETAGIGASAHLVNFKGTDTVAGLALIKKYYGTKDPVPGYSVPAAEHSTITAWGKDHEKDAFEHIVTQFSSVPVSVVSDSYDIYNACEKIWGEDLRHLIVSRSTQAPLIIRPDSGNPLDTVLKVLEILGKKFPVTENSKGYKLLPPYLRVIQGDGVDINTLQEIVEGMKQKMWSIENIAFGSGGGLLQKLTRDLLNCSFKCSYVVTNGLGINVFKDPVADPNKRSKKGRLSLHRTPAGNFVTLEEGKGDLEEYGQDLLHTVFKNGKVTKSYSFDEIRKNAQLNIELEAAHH
Structure (SMILES),AC1.4 Human [µM],EC50 [µM]
"O=C(Nc1ccc(CC(=O)N2CCN(C3COC3)CC2)cc1)OCc1ccc(Cl)cc1 [Compound 194, (4-chlorophenyl)methyl N-(4-{2-[4-(oxetan-3-yl)piperazin-1-yl]-2-oxoethyl}phenyl)carbamate]",1.73,26.7
"O=C(Nc1ccc(Cc2ccncc2)cc1)OCc1ccc(C(F)F)cc1 [Compound 196, 4-(difluoromethyl)benzyl (4-(pyridin-4-ylmethyl)phenyl)carbamate]",1.75,7.22
"Cc1ccc(NC(=O)Cc2ccc(NC(=O)OCc3ccc(Cl)cc3)cc2)cn1 [Compound 199, (4-chlorophenyl)methyl N-(4-{[(6-methylpyridin-3-yl)carbamoyl]methyl}phenyl)carbamate]",1.77,5.28
"Cc1cc(C(=O)N[C@@H](C)c2ccc(NC(=O)OCc3ccc(Cl)cc3)cc2)on1 [Compound 200, 4-chlorobenzyl (S)-(4-(1-(3-methylisoxazole-5-carboxamido)ethyl)phenyl)carbamate]",1.78,2.12
"O=C(Nc1ccc(Cc2ccncc2)cc1)OCc1cncs1 [Compound 201, thiazol-5-ylmethyl (4-(pyridin-4-ylmethyl)phenyl)carbamate]",1.78,26.4
"CN1CC(=O)NC[C@@H]1c1ccc(NC(=O)OCc2ccc(C(F)F)cc2)cc1 [Compound 204, 4-(difluoromethyl)benzyl (S)-(4-(1-methyl-5-oxopiperazin-2-yl)phenyl)carbamate]",1.83,21.1
"Cc1n[nH]c(C)c1C(=O)N(C)Cc1ccc(NC(=O)OCc2ccc(Cl)cc2)cc1 [Compound 206, (4-chlorophenyl)methyl N-(4-{[1-(3,5-dimethyl-1H-pyrazol-4-yl)-N-methylformamido]methyl}phenyl)carbamate]",1.85,14.7
"O=C(Nc1ccc(CNC(=O)c2ncccc2F)cc1)OCc1ccc(Cl)cc1 [Compound 207, (4-chlorophenyl)methyl N-(4-{[(3-fluoropyridin-2-yl)formamido]methyl}phenyl)carbamate]",1.85,9.34
"Cc1ncoc1C(=O)NCc1ccc(NC(=O)OCc2ccc(Cl)cc2)cc1 [Compound 209, (4-chlorophenyl)methyl N-(4-{[(4-methyl-1,3-oxazol-5-yl)formamido]methyl}phenyl)carbamate]",1.88,21.6
"C[C@H](NC(=O)c1ccnn1C1CCC1)c1ccc(NC(=O)OCc2ccc(Cl)cc2)cc1 [Compound 210, (4-chlorophenyl)methyl N-{4-[(1S)-1-[(2-cyclobutylpyrazol-3-yl)formamido]ethyl]phenyl}carbamate]",1.91,3.82
"COc1nc(C)ccc1C(=O)N[C@@H](C)c1ccc(NC(=O)OCc2ccc(Cl)cc2)cc1 [Compound 213, (4-chlorophenyl)methyl N-{4-[(1S)-1-[(2-methoxy-6-methylpyridin-3-yl)formamido]ethyl]phenyl}carbamate]",1.95,2.92
"Cc1ccc(C(=O)NCc2ccc(NC(=O)OCc3ccc(Cl)cc3)cc2)nc1 [Compound 214, (4-chlorophenyl)methyl N-(4-{[(5-methylpyridin-2-yl)formamido]methyl}phenyl)carbamate]",1.96,9.59
"O=C(Nc1ccc(Cc2ccncc2)cc1)OCc1ccc(Cl)cc1 [Compound 216, 4-chlorobenzyl (4-(pyridin-4-ylmethyl)phenyl)carbamate]",1.98,5.81
"Cc1ncc(C(=O)N[C@@H](C)c2ccc(NC(=O)OCc3ccc(Cl)cc3)cc2)o1 [Compound 218, (4-chlorophenyl)methyl N-{4-[(1S)-1-[(2-methyl-1,3-oxazol-5-yl)formamido]ethyl]phenyl}carbamate]",1.99,9.06

# The next lines start with the values.
AC1.4 Human [µM],EC50 [µM],Structure (SMILES)
1.71,12.7,"Cn1cc(C(=O)NCc2ccc(NC(=O)OCc3ccc(Cl)cc3)cc2)cn1 [Compound 193, (4-chlorophenyl)methyl N-(4-{[(1-methylpyrazol-4-yl)formamido]methyl}phenyl)carbamate]"
1.73,8.13,"COc1cc(C(=O)NCc2ccc(NC(=O)OCc3ccc(Cl)cc3)cc2)cnc1C [Compound 195, (4-chlorophenyl)methyl N-(4-{[(5-methoxy-6-methylpyridin-3-yl)formamido]methyl}phenyl)carbamate]"
1.75,11.8,"Cc1n[nH]cc1C(=O)N(C)Cc1ccc(NC(=O)OCc2ccc(Cl)cc2)cc1 [Compound 197, (4-chlorophenyl)methyl N-(4-{[N-methyl-1-(3-methyl-1H-pyrazol-4-yl)formamido]methyl}phenyl)carbamate]"
1.76,8.59,"O=C(Nc1ccc(C2CCN(C3COC3)CC2)cc1)OCc1ccc(Cl)cc1 [Compound 198, (4-chlorophenyl)methyl N-{4-[1-(oxetan-3-yl)piperidin-4-yl]phenyl}carbamate]"
1.82,24.5,"O=C(Nc1ccc(CC(=O)N2CCC[C@H]2CO)cc1)OCc1ccc(Cl)cc1 [Compound 202, (4-chlorophenyl)methyl N-(4-{2-[(2S)-2-(hydroxymethyl)pyrrolidin-1-yl]-2-oxoethyl}phenyl)carbamate]"
1.82,7.14,"Cc1nn(C)c(C(=O)NCc2ccc(NC(=O)OCc3ccc(Cl)cc3)cc2)c1F [Compound 203, (4-chlorophenyl)methyl N-(4-{[(4-fluoro-2,5-dimethylpyrazol-3-yl)formamido]methyl}phenyl)carbamate]"
1.84,10.1,"Cn1nccc1C(=O)NCc1ccc(NC(=O)OCc2ccc(Cl)cc2)cc1 [Compound 205, (4-chlorophenyl)methyl N-(4-{[(2-methylpyrazol-3-yl)formamido]methyl}phenyl)carbamate]"
1.87,17.4,"CCc1cc(C(=O)NCc2ccc(NC(=O)OCc3ccc(Cl)cc3)cc2)n(C)n1 [Compound 208, (4-chlorophenyl)methyl N-(4-{[(5-ethyl-2-methylpyrazol-3-yl)formamido]methyl}phenyl)carbamate]"
1.91,10.6,"Cc1nc(C)c(C(=O)NCc2ccc(NC(=O)OCc3ccc(Cl)cc3)cc2)o1 [Compound 211, (4-chlorophenyl)methyl N-(4-{[(2,4-dimethyl-1,3-oxazol-5-yl)formamido]methyl}phenyl)carbamate]"
1.93,10.2,"O=C(Nc1ccc(CC(=O)N2CCC(F)CC2)cc1)OCc1ccc(Cl)cc1 [Compound 212, (4-chlorophenyl)methyl N-{4-[2-(4-fluoropiperidin-1-yl)-2-oxoethyl]phenyl}carbamate]"
1.96,8.35,"CC1CCCN1C(=O)Cc1ccc(NC(=O)OCc2ccc(Cl)cc2)cc1 (stereo not shown) [Compound 215, (4-chlorophenyl)methyl N-{4-[2-(2-methylpyrrolidin-1-yl)-2-oxoethyl]phenyl}carbamate]"
1.98,24.4,"COc1ccc(COC(=O)Nc2ccc(COC3CCN(C(C)=O)CC3)cc2)cc1 [Compound 217, 4-methoxybenzyl (4-(((1-acetylpiperidin-4-yl)oxy)methyl)phenyl)carbamate]"

# Reference: patent publication US20240279215A1 (Cytokinetics, Incorporated, priority 2022, published 2024)
